{"source": "BindingDB's records for doi:10.1021/jm00102a019", "about": "(Oregon State University, 1993)", "target": "Delta-type opioid receptor (Cavia porcellus)", "experiment": "Tested for inhibitory effect on binding of [3H]DPDPE to opioid receptor delta in guinea pig cerebellum membranes"}
{"smiles": "C=CCN(CC=C)[C@@H](Cc1ccc(O)cc1)C(=O)NCC(=O)NCC(=O)N[C@@H](Cc1ccccc1)C(=O)N[C@@H](CC(C)C)C(=O)N[C@@H](CCCNC(=N)N)C(=O)N[C@@H](CCCNC(=N)N)C(=O)N[C@H](C(=O)N[C@@H](CCCNC(=N)N)C(=O)N1CCC[C@@H]1C(=O)N[C@@H](CCCCN)C(=O)O)[C@@H](C)CC", "values": [{"measurement": "Ki", "result": 149, "unit": "nM"}]}
{"smiles": "CC[C@H](C)[C@H](NC(=O)[C@H](CCCNC(=N)N)NC(=O)[C@H](CCCNC(=N)N)NC(=O)[C@H](CC(C)C)NC(=O)[C@H](Cc1ccccc1)NC(=O)CNC(=O)CNC(=O)[C@H](Cc1ccc(O)cc1)NCC1CC1)C(=O)N[C@@H](CCCNC(=N)N)C(=O)N1CCC[C@@H]1C(=O)N[C@@H](CCCCN)C(=O)O", "values": [{"measurement": "Ki", "result": 558, "unit": "nM"}]}
